Results as given in article PMC10014103, “The immunometabolite itaconate stimulates OXGR1 to promote mucociliary clearance during the pulmonary innate immune response” (The Journal of Clinical Investigation, 2023).

Test system: Pseudomonas aeruginosa strain PAO1
Assay: Mouse intranasal infection with P. aeruginosa strain PAO1, CFU in BAL and lung
Type: in vivo
Details: intranasal 1 mM ITA with PAO1, 12 hours after infection
Description: A 1 × 10^7 log-phase PAO1 strain in 40 μL PBS was used for infection of the mice. Mice were gently restrained by the scruff at a 45° angle. PBS with the indicated strains was delivered to the nares. PBS alone or with 1 mM ITA was codelivered along with PAO1. Mouse mouths were covered during the whole procedure to ensure complete inhalation into the nose and the lower respiratory tract. BAL and lung tissue were collected 12 hours of infection and plated in cetyl trimethyl ammonium bromide (CTAB) selection agar. The numbers of CFU were counted after 18 hours of culture.

C=C(CC(=O)O)C(=O)O [ITA, itaconate]
bacterial overgrowth phenotype (CFU in BAL and lung), Irg1–/– mice: rescued the bacterial overgrowth phenotype
